pIC50: −log10 of the molar value.
biological target: T1, Keap1-Nrf2 PPI (Keap1 kelch domain protein, FITC labeled Nrf2 9 peptide) (Homo sapiens, UniProt Q14145); assay: Fluorescence polarization based Keap1-Nrf2 PPI competitive inhibition experiment (FP experiment); assay type: binding; conditions: FP experiment; general formula I / II compounds
T1 construct: 10 μL 12 nm Keap1 kelch domain protein
Protocol: 1. Keap1-Nrf2 PPI Competitive Inhibition Test Based on Fluorescence Polarization (FP Experiment)
The 384-well blackboard model 3676 produced by Corning is used in FP experiment, with a total volume of reaction of 40 μL. 20 μL compound, 10 μL 4 nm FITC labeled Nrf2 9 peptide, 10 μL 12 nm Keap1 kelch domain protein are added to the well in order. 20 μL 200 nM DDO-1002, 10 μL 4 nM of the FITC-labeled Nrf2 9 peptide, 10 μL 12 nM of Keap1 Ketch domain protein are used in the positive control; 20 μL HEPES buffer, 10 μL 4 nM of the FITC-labeled Nrf2 9 peptide, 10 μL, 12 nM of Keap1 Kelch domain protein are used in the negative control; 10 μL 4 nM of the FITC-labeled Nrf2 9 peptide, 30 μL of HEPES buffer are used in the blank control. After addition is complete, they are incubated for 30 min at room temperature. The detection instrument is a SpectraMax Multi-Mode Microplate Reader (Molecular Devices), the excitation light wavelength selected is 485 nm, the emission light wavelength is 545 nm, and the fluorescence intensity in the horizontal and vertical directions is detected to calculate the polarization value. The inhibition rate is calculated as: inhibition %=[…]/(Pmax−Pmin) wherein Pobs is the polarization value of the compound well, Pmax is the polarization value of the negative control well, and Pmin is the polarization value of the blank well. Data treatment is performed using GraphPad Prism, and IC50 of the compound is calculated using a concentration-inhibition rate curve. The IC50 values for each compound are as previously described.

T1 sequence (Q14145 321-609 limits assumed): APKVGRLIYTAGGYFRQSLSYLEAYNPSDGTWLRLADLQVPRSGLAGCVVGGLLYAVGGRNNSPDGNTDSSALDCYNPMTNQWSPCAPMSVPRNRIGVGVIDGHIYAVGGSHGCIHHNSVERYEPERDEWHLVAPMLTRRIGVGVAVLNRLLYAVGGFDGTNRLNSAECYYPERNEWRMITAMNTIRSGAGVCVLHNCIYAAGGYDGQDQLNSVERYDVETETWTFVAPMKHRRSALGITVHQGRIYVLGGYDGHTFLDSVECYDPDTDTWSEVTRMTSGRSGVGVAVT

pIC50 | Compound
6.75 | COc1ccc(S(=O)(=O)N(CC(=O)O)c2ccc(N(Cc3ccc(F)cc3)[C@@H](C)CC(=O)O)c3ccccc23)cc1 [DDO-1167, (S)-3-((4-((N-(carboxymethyl)-4-methoxyphenyl)sulfonamido)naphthalen-1-yl) (4-fluorobenzyl)amino) butanoic acid]
6.97 | COc1ccc(S(=O)(=O)N(CC(=O)O)c2ccc(N(Cc3ccccc3)[C@@H](C)CC(=O)O)c3ccccc23)cc1 [DDO-1161, (S)-3-(benzyl(4-((N-(carboxymethyl)-4methoxyphenyl)sulfonamido)naphthalen-1-yl) (benzyl)amino) butanoic acid]
6.74 | COc1ccc(S(=O)(=O)N(CC(=O)O)c2ccc(N(Cc3cccc(Cl)c3)[C@@H](C)CC(=O)O)c3ccccc23)cc1 [DDO-1173, (S)-3-((4-((N-(Carboxymethyl)-4-methoxyphenyl)sulfonamido)naphthalen-1-yl) (3-chlorobenzyl)amino) butanoic acid]
5.61 | COc1ccc(S(=O)(=O)Nc2ccc(N(Cc3cccc(F)c3)[C@@H](C)CC(=O)O)c3ccccc23)cc1 [DDO-1176, (S)-3-((3-fluorobenzyl) (4-((4-methoxyphenyl)sulfonamido)naphthalen-1-yl)amino) butanoic acid]
6.74 | COc1ccc(S(=O)(=O)N(CC(=O)O)c2ccc(N(Cc3cccc(F)c3)[C@@H](C)CC(=O)O)c3ccccc23)cc1 [DDO-1177, (S)-3-((4-((N-(carboxymethyl)-4-methoxyphenyl)sulfonamido)naphthalen-1-yl) (3-fluorobenzyl)amino) butanoic acid]
5.67 | COc1ccc(S(=O)(=O)Nc2ccc(N(Cc3ccc(F)cc3)[C@@H](C)CC(=O)O)c3ccccc23)cc1 [DDO-1166, (S)-3-((4-fluorobenzyl) (4-((4-methoxyphenyl)sulfonamido)naphthalen-1-yl)amino) butanoic acid]
5.80 | COc1ccc(S(=O)(=O)Nc2ccc(N(Cc3ccccc3Cl)[C@@H](C)CC(=O)O)c3ccccc23)cc1 [DDO-1174, (S)-3-((2-chlorobenzyl) (4-((4-methoxyphenyl)sulfonamido)naphthalen-1-yl)amino) butanoic acid]
5.78 | COc1ccc(S(=O)(=O)Nc2ccc(N(Cc3cccc(C)c3)[C@@H](C)CC(=O)O)c3ccccc23)cc1 [DDO-1168, (S)-3-((4-((4-methoxyphenyl)sulfonamido)naphthalen-1-yl) (3-methylbenzyl)amino) butanoic acid]
5.39 | COc1ccc(S(=O)(=O)Nc2ccc(N(Cc3ccc(Cl)cc3)[C@@H](C)CC(=O)O)c3ccccc23)cc1 [DDO-1164, (S)-3-((4-chlorobenzyl) (4-((4-methoxyphenyl)sulfonamido)naphthalen-1-yl)amino) butanoic acid]

same assay, conditions: FP experiment; general formula III compounds; unit inferred

Compound | pIC50
C#CCN(c1ccc(NS(=O)(=O)c2ccc(NC(C)=O)cc2)c2ccccc12)[C@@H](C)CC(=O)O [DDO-1188, (S)-3-((4-((4-acetamidophenyl)sulfonamido)naphthalen-1-yl) (prop-2-yn-1-yl)amino) butanoic acid] | 5.84
C#CCN(c1ccc(NS(=O)(=O)c2ccc(F)cc2)c2ccccc12)[C@@H](C)CC(=O)O [DDO-1190, (S)-3-((4-((4-fluorophenyl)sulfonamido)naphthalen-1-yl)(prop-2-yn-1-yl)amino) butanoic acid] | 5.40
C#CCN(c1ccc(NS(=O)(=O)c2ccc(C(C)C)cc2)c2ccccc12)[C@@H](C)CC(=O)O [DDO-1196, (S)-3-((4-((4-isopropylphenyl)sulfonamido)naphthalen-1-yl)(prop-2-yn-1-yl)amino) butanoic acid] | 6.66
C#CCN(c1ccc(NS(=O)(=O)c2ccccc2)c2ccccc12)[C@@H](C)CC(=O)O [DDO-1186, (S)-3-((4-(phenylsulfonamido)naphthalen-1-yl)(prop-2-yn-1-yl)amino) butanoic acid] | 5.10
C#CCN(c1ccc(NS(=O)(=O)c2ccc(Cl)cc2)c2ccccc12)[C@@H](C)CC(=O)O [DDO-1192, (S)-3-((4-((4-chlorophenyl)sulfonamido)naphthalen-1-yl)(prop-2-yn-1-yl)amino) butanoic acid] | 5.77

The remaining lines, values ahead:

pIC50 | Compound
7.39 | C#CCN(c1ccc(NS(=O)(=O)c2c(C)cc(C)cc2C)c2ccccc12)[C@@H](C)CC(=O)O [DDO-1206, (S)-3-(prop-2-yn-1-yl(4-((2,4,6-trimethylphenyl)sulfonamido)naphthalen-1-yl)amino) butanoic acid]
7.03 | C#CCN(c1ccc(NS(=O)(=O)c2ccc(C)cc2C)c2ccccc12)[C@@H](C)CC(=O)O [DDO-1204, (S)-3-((4-((2,4-dimethylphenyl)sulfonamido)naphthalen-1-yl) (prop-2-yn-1-yl)amino) butanoic acid]

same assay, conditions: FP experiment; general formula IV compounds

Compound | pIC50
C#CCN(c1ccc(N(CC(=O)O)S(=O)(=O)c2ccc(F)cc2)c2ccccc12)[C@@H](C)CC(=O)O [DDO-1191, (S)-3-((4-((N-(carboxymethyl)-4-fluorophenyl)sulfonamido)naphthalen-1-yl) (prop-2-yn-1-yl)amino) butanoic acid] | 5.70
C#CCN(c1ccc(N(CC(=O)O)S(=O)(=O)c2ccc(Cl)cc2)c2ccccc12)[C@@H](C)CC(=O)O [DDO-1193, (S)-3-((4-((N-(Carboxymethyl)-4-chlorophenyl)sulfonamido)naphthalen-1-yl)(prop-2-yn-1-yl)amino) butanoic acid] | 6.02
C#CCN(c1ccc(N(CC(=O)O)S(=O)(=O)c2ccccc2)c2ccccc12)[C@@H](C)CC(=O)O [DDO-1187, (S)-3-((4-(N-(carboxymethyl)benzenesulfonamido)naphthalen-1-yl) (prop-2-yn-1-yl)amino) butanoic acid] | 5.52
C#CCN(c1ccc(N(CC(=O)O)S(=O)(=O)c2ccc(NC(C)=O)cc2)c2ccccc12)[C@@H](C)CC(=O)O [DDO-1189, (S)-3-((4-((4-acetamido-N-(carboxymethyl)phenyl)sulfonamido)naphthalen-1-yl)(prop-2-yn-1-yl)amino) butanoic acid] | 6.20
C#CCN(c1ccc(N(CC(=O)O)S(=O)(=O)c2ccc(C(C)C)cc2)c2ccccc12)[C@@H](C)CC(=O)O [DDO-1197, (S)-3-((4-((N-(carboxymethyl)-4-isopropylphenyl)sulfonamido)naphthalen-1-yl)(prop-2-yn-1-yl)amino) butanoic acid] | 7.10
C#CCN(c1ccc(N(CC(=O)O)S(=O)(=O)c2ccc(C)cc2)c2ccccc12)[C@@H](C)CC(=O)O [DDO-1195, (S)-3-((4-((N-(Carboxymethyl)-4-methylphenyl)sulfonamide)naphthalen-1-yl)(prop-2-yn-1-yl)amino) butanoic acid] | 6.96

The next lines start with the values.

pIC50 | Compound
6.89 | C#CCN(c1ccc(N(CC(=O)O)S(=O)(=O)c2cccc(OC)c2)c2ccccc12)[C@@H](C)CC(=O)O [DDO-1201]
6.54 | C#CCN(c1ccc(N(CC(=O)O)S(=O)(=O)c2ccccc2OC)c2ccccc12)[C@@H](C)CC(=O)O [DDO-1199]
6.82 | C#CCN(c1ccc(N(CC(=O)O)S(=O)(=O)c2c(C)c(C)cc(C)c2C)c2ccccc12)[C@@H](C)CC(=O)O [DDO-1209, (S)-3-((4-((N-(Carboxymethyl)-2,3,5,6-tetramethylphenyl)sulfonamido)naphthalen-1-yl)(prop-2-yn-1-yl)amino) butanoic acid]

same assay, conditions: FP experiment; general formula V / VI compounds

pIC50 | Compound
6.81 | C#CCN(c1ccc(N(CC(=O)O)S(=O)(=O)c2ccc(OC)c(F)c2)c2ccccc12)[C@@H](C)CC(=O)O [DDO-1213]
7.14 | C#CCN(c1ccc(NS(=O)(=O)c2ccc(OC)c(C)c2)c2ccccc12)[C@@H](C)CC(=O)O [DDO-1216, (S)-3-((4-((4-methoxy-3-methylphenyl)sulfonamido)naphthalen-1-yl) (prop-2-yn-1-yl)amino) butanoic acid]
6.80 | C#CCN(c1ccc(NS(=O)(=O)c2ccc3c(c2)CCO3)c2ccccc12)[C@@H](C)CC(=O)O [DDO-1222, (S)-3-((4-((2,3-dihydrobenzofuran)-5-sulfonamido)naphthalen-1-yl) (prop-2-yn-1-yl)amino) butanoic acid]
7.23 | C#CCN(c1ccc(N(CC(=O)O)S(=O)(=O)c2ccc(OC)c(OC)c2)c2ccccc12)[C@@H](C)CC(=O)O [DDO-1211, (S)-3-((4-((N-(Carboxymethyl)-3,4-dimethoxyphenyl)sulfonamido)naphthalen-1-yl)(prop-2-yn-1-yl)amino) butanoic acid]
6.56 | C#CCN(c1ccc(NS(=O)(=O)c2ccc(OC)c(F)c2)c2ccccc12)[C@@H](C)CC(=O)O [DDO-1212, (S)-3-((4-((3-fluoro-4-methoxyphenyl)sulfonamido)naphthalen-1-yl) (prop-2-yn-1-yl)amino) butanoic acid]
8.15 | C#CCN(c1ccc(N(CC(=O)O)S(=O)(=O)c2c(C)cc(OC)c(C)c2C)c2ccccc12)[C@@H](C)CC(=O)O [DDO-1219, (S)-3-((4-((N-(Carboxymethyl)-4-methoxy-2,3,6-trimethylphenyl)sulfonamidyl)naphthalen-1-yl)(prop-2-yn-1-yl)amino) butanoic acid]

— US11773057B2, “Naphthalenesulfonamide compound, preparation method, and application” (CHINA PHARMACEUTICAL UNIVERSITY, priority 2019, dated 2023)
